Results as given in patent US20220235068A1, “TETRACYCLIC COMPOUNDS AS CDC7 INHIBITORS” (Chia Tai Tianqing Pharmaceutical Group Co., Ltd., priority 2019, published 2022).
Counter-ions that a name gives are not always drawn. Like-named read-outs stand apart in the source and are kept apart here.

Legend:
[1] = system: human colorectal cancer cell SW620; experiment: In vivo pharmacodynamic study in subcutaneous xenograft tumor nude mouse model of SW620; conditions: BID, p.o.
Method: Human colorectal cancer cell SW620 cells of the 7th passage were cultured in an L-15 medium containing 10% fetal bovine serum, 100 U/mL penicillin and 100 μg/mL streptomycin through in vitro monolayer culture in an incubator at 37° C./[…] for 4 passages with conventional medium replacement. At a cell saturation of 80-90%, the cells were digested with pancreatin-EDTA, counted and resuspended in PBS at a density of 5×10^6 cells/100 μL.
Cell inoculation: Each mouse was inoculated on the right cervical dorsum with 0.1 mL of the cell suspension of 5×10^6 SW620 cells in PBS. At an average tumor volume up to about 134 mm^3, the mice were randomly grouped and administrated.
Tumor diameters were measured twice weekly using a vernier caliper. The tumor volume was calculated using the following formula: V=0.5 a×b^2, where a and b represent the long diameter and short diameter of the tumor, respectively.
The anti-tumor therapeutic effect of the compound was evaluated by TGI (%) or relative tumor proliferation rate T/C (%). Relative tumor proliferation rate T/C (%)=TRTV/CRTV×100% (TRTV: RTV of treatment group; CRTV: RTV of negative control group). Relative tumor volumes (RTVs) were calculated from the tumor measurement results using the following formula: RTV=Vt/VO, where VO is the average tumor volume measured at the time of grouping (i.e., DO), Vt is the average tumor volume measured at a certain measurement, and TRTV and CRTV are taken from the data measured on the same day.
TGI (%), reflects the tumor growth inhibition rate. TGI (%)=[(1−(average tumor volume at the end of administration in a treatment group−average tumor volume at the start of administration of the treatment group))/(average tumor volume at the end of treatment of the vehicle control group−average tumor volume at the start of treatment of the vehicle control group)]×100%.
After day 22 of the grouping, mice were euthanized, plasma and tumors were sampled and tumors were weighed and photographed.

[2] = Single-dose pharmacokinetic study in mice; assay type: in vivo; conditions: male CD-1 mice
Method: To evaluate the pharmacokinetic behavior by using male CD-1 mice as test animals and determining the drug concentrations of the compounds in the plasma after single-dose administration. Healthy adult male CD-1 mice were selected for intragastric administration. A compound was mixed with an appropriate amount of 5% DMSO/95% (10% hydroxypropyl-β-cyclodextrin), vortexed and sonicated to prepare a 1 mg/mL clear solution for later use. After the mice were administered intravenously at 2 mg/kg and orally at 10 mg/kg, whole blood was collected at certain time points, and plasma was separated. After pretreatment of the samples, the drug concentration was measured by LC-MS/MS, and pharmacokinetic parameters were calculated using Phoenix WinNonlin software.

[3] = molecular target: T1, Cdc7/DBF4 (Homo sapiens, UniProt O00311); experiment: Inhibitory effect against activity of Cdc7/DBF4 (ADP-Glo kinase detection kit); assay type: biochemical; conditions: 10 μM ATP, 25° C., 60 min
T1 construct: purchased Promega
Method: Cdc7/DBF4 kinase detection kit purchased from Promega; and
(§1) Nivo multi-marker analyzer (PerkinElmer).
An enzyme, a substrate, adenosine triphosphate and an inhibitor were diluted with the kinase buffer in the kit. A test compound was serially 5-fold diluted to an 8th concentration, i.e., from 10 μM to 0.13 nM, with the DMSO concentration being 5%, and the duplicate well experiment was set up. To a microplate were added 1 μL of inhibitors of various concentration gradients, 2 μL of CDCl7/DBF4 kinase (6.25 ng), 2 μL of a mixture of substrate and ATP (10 μM adenosine triphosphate, 0.2 μg/μL substrate), and the final concentration gradient of the compound was diluted from 2 μM to 0.025 nM. The reaction system was left reacting at 25° C. for 60 min. After the reaction was completed, 5 μL of ADP-Glo reagent was added to each well, and the reaction was continued at 25° C. for 40 min. After the reaction was completed, 10 μL of the kinase detection reagent was added to each well. After 30 min of reaction at 25° C., the chemiluminescence was read using the multi-marker analyzer with an integration time of 0.5 s.
The original data were converted to inhibition using the equation (Sample−Min)/(Max−Min)×100%, and the IC50 value was then curve fitted using four parameters (obtained from the “log(inhibitor) vs. response-Variableslope” model in GraphPadPrism). Table 1 provides the enzymatic inhibitory activity of the compounds disclosed herein against Cdc7/DBF4.

[4] = system: Colo205 cells; experiment: Inhibitory effect against Colo205 cell proliferation (CellTiter-Glo); assay type: cell-based; conditions: incubation 3 days
Method: 1640 medium; fetal bovine serum; penicillin/streptomycin antibiotics purchased from Wisent;
CellTiter-Glo (chemiluminescence detection reagent for cell viability) reagent purchased from Promega;
COL0205 cell line purchased from Wuhan Procell Life Science&Technology Co., Ltd; and
as §1
COL0205 cells were plated on to white 96-well plates by adding 80 μL of cell suspension (containing 3000 COL0205 cells) to each well. The cell plate was incubated in a CO2 incubator overnight.
A test compound was serially 3-fold diluted to an 8th concentration, i.e., from 2 mM to 920 nM, and the duplicate well experiment was set up. 78 μL of medium was added to an intermediate plate, 2 μL of the serially diluted compound was transferred to corresponding wells of the intermediate plate, and after mixing, the mixture was transferred to the cell plate at 20 μL per well. The concentration of the compound transferred to the cell plate ranged from 10 μM to 4.57 nM. The cell plate was incubated in a CO2 incubator for 3 days. Another cell plate was provided for reading signal values on the day of compound addition and these values were used as […] in data analysis. The chemiluminescence detection reagent for cell viability was added to this cell plate at 25 μL per well and the luminescence signals were stabilized by incubation at room temperature for 10 min. Readings were taken using the multi-marker analyzer. The chemiluminescence detection reagent for cell viability was added to the cell plate at 25 μL per well and the luminescence signals were stabilized by incubation at room temperature for 10 min. Readings were taken using the multi-marker analyzer.
The original data were converted to inhibition using the equation (Sample−Min)/(Max−Min)×100%, and the IC50 value was then curve fitted using four parameters (obtained from the “log(inhibitor) vs. response-Variableslope” model in GraphPadPrism). Table 2 provides the inhibitory activity of the compounds disclosed herein against COL0205 cell proliferation.

[5] = mouse, plasma, IV: 2 mg/kg, PO: 10 mg/kg

T1 sequence (O00311 whole entry): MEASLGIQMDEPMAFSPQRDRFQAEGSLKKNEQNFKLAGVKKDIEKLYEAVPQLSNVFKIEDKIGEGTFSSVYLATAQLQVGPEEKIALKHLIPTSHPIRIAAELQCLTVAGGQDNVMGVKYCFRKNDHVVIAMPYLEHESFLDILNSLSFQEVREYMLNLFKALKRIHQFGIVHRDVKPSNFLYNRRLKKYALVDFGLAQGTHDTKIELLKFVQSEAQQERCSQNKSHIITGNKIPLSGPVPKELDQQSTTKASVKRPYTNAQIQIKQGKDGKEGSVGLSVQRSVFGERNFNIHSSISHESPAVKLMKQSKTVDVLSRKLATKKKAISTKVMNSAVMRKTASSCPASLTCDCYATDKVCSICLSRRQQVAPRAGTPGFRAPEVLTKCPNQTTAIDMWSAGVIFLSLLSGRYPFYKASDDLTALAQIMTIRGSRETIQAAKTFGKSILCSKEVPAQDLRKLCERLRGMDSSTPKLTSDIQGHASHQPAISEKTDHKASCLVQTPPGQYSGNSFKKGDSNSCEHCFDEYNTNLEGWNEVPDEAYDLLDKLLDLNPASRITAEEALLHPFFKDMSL
T1 sequence (Q9UBU7 whole entry partner): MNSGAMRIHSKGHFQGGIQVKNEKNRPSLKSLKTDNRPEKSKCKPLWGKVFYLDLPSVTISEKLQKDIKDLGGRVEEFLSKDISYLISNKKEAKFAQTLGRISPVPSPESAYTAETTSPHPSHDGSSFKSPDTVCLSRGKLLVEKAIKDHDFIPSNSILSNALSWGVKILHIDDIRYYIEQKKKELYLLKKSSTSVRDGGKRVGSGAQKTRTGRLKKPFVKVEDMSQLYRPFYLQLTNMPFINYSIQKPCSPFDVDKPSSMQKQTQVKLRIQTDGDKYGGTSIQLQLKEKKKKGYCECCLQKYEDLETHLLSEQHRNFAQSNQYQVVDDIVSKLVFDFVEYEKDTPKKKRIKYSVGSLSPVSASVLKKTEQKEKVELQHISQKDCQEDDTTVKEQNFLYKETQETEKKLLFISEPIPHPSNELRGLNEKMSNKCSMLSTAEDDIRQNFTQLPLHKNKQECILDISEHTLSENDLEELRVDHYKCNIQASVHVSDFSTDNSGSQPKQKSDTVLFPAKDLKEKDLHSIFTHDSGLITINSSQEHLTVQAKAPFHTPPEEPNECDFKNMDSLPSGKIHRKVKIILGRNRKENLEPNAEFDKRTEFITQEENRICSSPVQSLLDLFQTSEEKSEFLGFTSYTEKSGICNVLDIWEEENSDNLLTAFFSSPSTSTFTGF

O=c1[nH]c([C@H]2CC3CCN2CC3)nc2c3c(sc12)-c1c[nH]nc1CCC3 (single isomer, unassigned) [Compound 1-1 hydrochloride]
Tumor volume (Day 1) ([1]; 2.5 mg/kg): 134 ± 13 mm^3
RTV (Day 21) ([1]; 2.5 mg/kg): 1.88
T/C (%) (Day 21) ([1]; 2.5 mg/kg): 22%
TGI (%) (Day 21) ([1]; 2.5 mg/kg): 89%
Tumor volume (Day 21) ([1]; 2.5 mg/kg): 237 ± 27 mm^3
Tumor volume (Day 1) ([1]; 5 mg/kg): 134 ± 15 mm^3
RTV (Day 21) ([1]; 5 mg/kg): 0.93
T/C (%) (Day 21) ([1]; 5 mg/kg): 11%
TGI (%) (Day 21) ([1]; 5 mg/kg): 100%
Tumor volume (Day 21) ([1]; 5 mg/kg): 133 ± 32 mm^3
Tumor volume (Day 1) ([1]; 7.5 mg/kg): 134 ± 14 mm^3
RTV (Day 21) ([1]; 7.5 mg/kg): 0.31
T/C (%) (Day 21) ([1]; 7.5 mg/kg): 4%
TGI (%) (Day 21) ([1]; 7.5 mg/kg): 108%
Tumor volume (Day 21) ([1]; 7.5 mg/kg): 53 ± 16 mm^3
Maximum concentration ([2]; IV: 2 mg/kg, PO: 10 mg/kg): 2230 nM
AUC(0-t) ([2]; mouse, plasma, IV 2 mg/kg, read-out: AUC0-last (intravenous injection)): 2.45 µM·h
bioavailability [2, 5]: 71.4%
clearance [2, 5]: 35.2 mL/min/kg
half-life [2, 5]: 4.03 h
Vd ([2]; mouse, plasma, IV: 2 mg/kg, PO: 10 mg/kg, read-out: Apparent volume of distribution): 4.13 L/kg
AUC(0-t) ([2]; mouse, plasma, PO 10 mg/kg, read-out: AUC0-last (oral)): 9.08 µM·h
IC50 [3]: 3.02 nM
IC50 [4]: 13.8 nM
